Counter-ions that a name gives are not always drawn.
Legend:
[1] = tested on: MCF7; experiment: Cytotoxicity on MCF7 monolayers (MTT assay); settings: Homo sapiens, MCF7, 72 h, read-out: Mean of % cytotoxicity ± SD
Experimental: (§1) Eighty pre-plated synthetic chemical compounds were screened on two human cell lines: MCF7 (ATCC® HTB-22™), a Caucasian breast adenocarcinoma model, and hTERT-RPE-1 (ATCC® CRL-4000™), a normal retinal epithelial cell line immortalized by hTERT telomerase. […] The cells were cultured in DMEM-F12 medium supplemented with L-glutamine and 10% fetal bovine serum, all were purchase from Biowest (Biotechnology company in Nuaillé, France), and maintained in a controlled incubator environment set at 37 °C with 5% CO2 and 95% humidity.
MCF7 cells were seeded in flat-bottom 96-well plates with a concentration of 20,000 cells/well, and were left overnight. The compounds were tested at a final concentration of 50 µM. Doxorubicin was used as a positive control and 0.5% DMSO as a negative control. The treatment duration was 72 h. The cytotoxicity was then assessed using the MTT assay, as described by Mosmann[43].

[2] = tested on: MCF7 3D spheroids; experiment: Cytotoxicity on MCF7 3D multicellular spheroids (acid phosphatase method); settings: Homo sapiens; for cytotoxicity at 50 µM: MCF7, 120 h, read-out: Mean of % cytotoxicity ± S.D
Experimental: as §1
3-D spheroid models were generated from MCF7 cancer and hTERT-RPE1 normal cells were seeded at 10,000 and 50,000 cells/well, respectively, in poly-HEMA coated round bottom plates according to the protocol previously mentioned[44]. The cells were incubated for 5 days to generate the spheroids with diameter of 500 ± 20 µm. The spheroids were imaged using Olympus S100, U-CMAD3 camera connected to Olympus inverted microscope and the diameter of the spheroids was measured using Cellscen-Entry software. Test compounds were added in triplicate to a final concentration of 50 µM and were incubated for 120 h. […] At the end of incubation, cytotoxicity was determined using the acid phosphatase method[45]. After washing twice with 250 μL PBS buffer, 100 μL of 0.1 M sodium citrate, 0.1% Triton X-100, p-nitrophenylphosphate (2 mg/ml) (Pierce Biotechnology Inc., Rockford, IL) was added to each well and incubated for 1.5 h at 37 °C. After incubation, 10 μL of 1N NaOH stop solution was added to each well, and absorbance was read at 405 nm. Cytotoxicity was calculated according to the following equation:

Compound | cytotoxicity at 50 µM [1] [%] | cytotoxicity at 50 µM [2] [%] | inhibition at 50 µM ([2]; MCF7, read-out: % inhibition 3D) [%]
COc1cc(-n2c(SC)nc3ccccc3c2=O)c(OC)cc1Cl [A02, 3-(4-chloro-2,5-dimethoxyphenyl)-2-(methylthio)-3,4-dihydroquinazolin-4-one] | 94.3 ± 0.06 | 67.1 ± 3.3 | 
Cc1nn(-c2ccccc2)nc1C(=O)Nc1cc(Cl)cc(Cl)c1 [A03, N4-(3,5-dichlorophenyl)-5-methyl-2-phenyl-2H-1,2,3-triazole-4-carboxamide] | 94.2 ± 0.65 | 39.1 ± 0.24 | 
O=[N+]([O-])c1ccc(N2CCC(n3cccc3)CC2)cc1 [A04, 1-(4-nitrophenyl)-4-(1H-pyrrol-1-yl)piperidine] | 2.5 ± 0.35 | 43.1 ± 0.23 | 
CCOC(=O)c1cnn(C(=O)c2snnc2C)c1N [A05, Ethyl 5-amino-1-[(4-methyl-1,2,3-thiadiazol-5-yl)carbonyl]-1H-pyrazole-4-carboxylate] | 62.3 ± 2.5 | 49 ± 0.8 | 
Nc1ccc(-c2ccc(N)c([N+](=O)[O-])c2)cc1[N+](=O)[O-] [A06, 3,3'-dinitro[1,1'-biphenyl]-4,4'-diamine] | 82.4 ± 0.41 | 60.8 ± 1 | 
O=C(O)c1nccnc1C(=O)Nc1ccccc1N1CCOCC1 [A08, 3-[(2-morpholinoanilino)carbonyl]-2-pyrazinecarboxylic acid] | 17.2 ± 1 | 49.3 ± 0.53 | 
O=C(Nc1cc(-c2ccccc2)n[nH]1)C1COc2ccccc2O1 (stereo not shown) [A09, N2-(3-phenyl-1H-pyrazol-5-yl)-2,3-dihydro-1,4-benzodioxine-2-carboxamide] | 100 ± 0.003 | 52.2 ± 1.9 | 
CCCS(=O)(=O)c1cscc1NC(=O)c1c(-c2c(F)cccc2Cl)noc1C [A10, N4-[4-(propylsulfonyl)-3-thienyl]-3-(2-chloro-6-fluorophenyl)-5-methylisoxazole-4-carboxamide] | 53.8 ± 4.9 | 68.6 ± 1.1 | 
Clc1ccc(CSc2ncnc3c2sc2nnc(-c4ccccc4)c(-c4ccccc4)c23)cc1 [A11, 8-[(4-chlorobenzyl)sulfanyl]-3,4-diphenylpyrimido [4',5':4,5]thieno[2,3-c]pyridazine] | 44.2 ± 1.6 | 46.4 ± 1.3 | 
CCOC(=O)c1ccc(-n2c(=S)[nH]c3ccccc32)cc1 [B02, ethyl 4-(2-thioxo-2,3-dihydro-1H-benzimidazol-1-yl)benzoate] | 100 ± 0.003 | 35.7 ± 1.8 | 
O=C(NCCc1ccncc1)C(F)(F)F [B03, N1-[2-(4-pyridyl)ethyl]-2,2,2-trifluoroacetamide] | 0 | 25.5 ± 0.11 | 
Cc1ncc(CO)c(C=NO)c1O [B04, 3-hydroxy-5-(hydroxymethyl)-2-methylisonicotinaldehyde oxime] | -58.5 ± 0.003 | 49.3 ± 0.35 | 
COC(=O)C(C#N)=Cc1cccn1-c1ccc(C(F)(F)F)cc1 [B05, methyl 2-cyano-3-{1-[4-(trifluoromethyl)phenyl]-1H-pyrrol-2-yl}acrylate] | 91.3 ± 0.6 | 42.1 ± 1.9 | 
CC(=O)Cc1nsc(Nc2ccccc2)n1 [B06, 1-(5-anilino-1,2,4-thiadiazol-3-yl)acetone] | 14.8 ± 2.6 | 20.4 ± 0.35 | 
CC(C)=NOC(=O)c1scc(S(C)(=O)=O)c1Cl [B07, 3-chloro-2-({[(1methylethylidene)amino]oxy}carbonyl)-4-(methylsulfonyl)thiophene] | 0 | 34.9 ± 1.7 | 
c1cc2c(cc1N=C1SCC3CCCCN13)OCO2 (stereo not shown) [B08, N-hexahydro[1,3]thiazolo[3,4-a]pyridin-3-ylidene-1,3-benzodioxol-5-amine] | 8.5 ± 0.47 | 53.1 ± 0.6 | 
O=C1NC(=O)C(=Cc2ccncc2)C(=O)N1 [B09, 5-(4-pyridylmethylidene)hexahydropyrimidine-2,4,6-trione] | 12.3 ± 0.7 | 59.2 ± 1.2 | 
NNC(=O)Cc1ccccc1 [B10, 2-phenylacetohydrazide] | 0 | 48.2 ± 0.23 | 
O=[N+]([O-])c1cc(C(F)(F)F)ccc1-n1ccc(C(F)(F)F)n1 [B11, 1-[2-nitro-4-(trifluoromethyl)phenyl]-3-(trifluoromethyl)-1H-pyrazole] | 0 | 30.5 ± 0.53 | 
Cn1c(=NN=c2oc3ccccc3n2C)oc2ccccc21 [C03, 1,2-di(3-methyl-2,3-dihydro-1,3-benzoxazol-2-yliden)hydrazine] | 86.6 ± 9.3 | 3.4 ± 0.17 | 
Cn1ccnc1SCC(=O)Nc1ccc(C(C)(C)C)cc1 [C04, N1-[4-(tert-butyl)phenyl]-2-[(1-methyl-1H-imidazol-2-yl)thio]acetamide] | 14.5 ± 0.58 | 28.6 ± 0.76 | 
C(=Cc1ccco1)C1=NN(Cc2ccccc2)CC1 [C05, 1-benzyl-3-[2-(2-furyl)vinyl]-4,5-dihydro-1H-pyrazole hydrochloride] | 62.9 ± 3.8 | 48.6 ± 2 | 

Compound | cytotoxicity at 50 µM [1] [%] | cytotoxicity at 50 µM [2] [%] | inhibition at 50 µM ([2]; MCF7, read-out: % inhibition 3D) [%]
COc1ccc(C(=O)NCc2ccco2)cc1OC [C06, N-(2-furylmethyl)-3,4-dimethoxybenzamide] | 0 | 35.8 ± 0.23 | 
Cc1cc(C)n(-c2ccc(S(N)(=O)=O)cc2)n1 [C07, 4-(3,5-dimethyl-1H-pyrazol-1-yl)benzene-1-sulfonamide] | 0 | 55.4 ± 2.3 | 
CC(=O)c1ccccc1OC(=O)c1ccc([N+](=O)[O-])o1 [C08, 2-acetylphenyl 5-nitro-2-furoate] | 66.3 ± 4.3 | 30.8 ± 1.3 | 
CC(=O)Nc1ccc(NC(=O)c2nccnc2C(=O)O)cn1 [C09, 3-({[6-(acetylamino)-3-pyridinyl]amino}carbonyl)-2-pyrazinecarboxylic acid] | 9.9 ± 1.1 | -23.4 ± 0.5 | -23
O=C(SCc1cccc(C(F)(F)F)c1)c1ccc(Cl)c(Cl)c1 [C10, S-[3-(trifluoromethyl)benzyl] 3,4-dichlorobenzene carbothioate] | 100 ± 0.003 | 33.8 ± 1.6 | 
O=C(NNC(=O)c1ccc(OC(F)(F)F)cc1)c1ccc(Cl)cc1 [C11, N'1-(4-chlorobenzoyl)-4-(trifluoromethoxy)benzene-1-carbohydrazide] | 83.1 ± 1.17 | 66.5 ± 0.24 | 
O=[N+]([O-])c1ccc2nc(-c3ccccc3)c(-c3ccccc3)nc2c1 [D02, 6-nitro-2,3-diphenylquinoxaline] | 5.2 ± 0.18 | -8 ± 0.003 | 
O=C(Nc1cccc(-c2ncon2)c1)C(Cl)(Cl)Cl [D03, 2,2,2-trichloro-N-[3-(1,2,4-oxadiazol-3-yl)phenyl]acetamide] | 11.1 ± 0.9 | 23.5 ± 0.17 | 
Cc1c(C)c(C)c2[nH]c(-c3ccc4c(c3)OCO4)nc2c1C [D04, 2-(1,3-benzodioxol-5-yl)-4,5,6,7-tetramethyl-1H-benzimidazole] | 100 ± 0.003 | 67.9 ± 0.5 | 
CC(=O)Nc1ccc(-c2ccccc2)cc1 [D05, N-[1,1'-biphenyl]-4-ylacetamide] | 49.7 ± 4.1 | 50.9 ± 2.4 | 
COc1c(Cl)cc([N+](=O)[O-])c(OC)c1C(=O)O [D06, 3-chloro-2,6-dimethoxy-5-nitrobenzoic acid] | 10.4 ± 0.6 | 40.8 ± 2.1 | 
COc1cc(-n2c(S)nnc2CCc2nc(-c3ccc(Cl)cc3)no2)c(OC)cc1Cl [D07, 4-(4-chloro-2,5-dimethoxyphenyl)-5-{2-[3-(4-chlorophenyl)-1,2,4-oxadiazol-5-yl]ethyl}-4H-1,2,4-triazole-3-thiol] | 88.7 ± 0.23 | 50.1 ± 2.3 | 
Cc1ccc(OCC(O)CN2CCC(C(N)=O)CC2)c([N+](=O)[O-])c1 (stereo not shown) [D09, 1-[2-hydroxy-3-(4-methyl-2-nitrophenoxy)propyl]piperidine-4-carboxamide] | 7.6 ± 0.2 | 50 ± 0.35 | 
COc1ccc(NNC(=O)c2c(-c3c(F)cccc3Cl)noc2C)cc1 [D10, 3-(2-chloro-6-fluorophenyl)-N'-(4-methoxyphenyl)-5-methyl-4-isoxazolecarbohydrazide] | 52.1 ± 2.11 | 51.7 ± 1.1 | 
CCCc1cc(=O)oc2cc(OC(C)C(=O)NNS(=O)(=O)c3cccc(C(F)(F)F)c3)ccc12 (stereo not shown) [D11, N'1-{2-[(2-oxo-4-propyl-2H-chromen-7-yl)oxy]propanoyl}-3-(trifluoromethyl)benzene-1-sulfonohydrazide] | 35.5 ± 0.35 | 40.6 ± 0.11 | 
CCOC1=NC(=Cc2[nH]c(OCC)c(CC(=O)OC)c2C(=O)OC)C(C(=O)OC)=C1CC(=O)OC [E02, methyl 5-ethoxy-2-{[5-ethoxy-3-(methoxycarbonyl)-4-(2-methoxy-2-oxoethyl)-2H-pyrrol-2-yliden]methyl}-4-(2-methoxy-2-oxoethyl)-1H-pyrrole-3-carboxylate] | 83.2 ± 1.2 | -10.8 ± 0.7 | 
CC(C)(C)SCCNc1nc(Oc2ccc(F)cc2)nc(Oc2ccc(F)cc2)n1 [E03, N2-[2-(tert-butylthio)ethyl]-4,6-di(4-fluorophenoxy)-1,3,5-triazin-2-amine] | 80.3 ± 1.5 | 41.8 ± 0.6 | 
CCOc1nc2ccccc2nc1OCC [E04, 2,3-diethoxyquinoxaline] | 62.6 ± 3.1 | 42 ± 1.1 | 
CN(C)C=C1Cc2ccccc2C1=O [E05, 2-[(dimethylamino)methylidene]indan-1-one] | 47.5 ± 6.2 | 41.4 ± 3.6 | 
N#CC1(c2ccccc2)N=C2C=CC=CN2N=C1c1ccccc1 (stereo not shown) [E06, 2,3-diphenyl-2H-pyrido[1,2-b][1,2,4]triazine-2-carbonitrile] | 26.7 ± 1.18 | 55 ± 1.6 | 
NS(=O)(=O)c1ccc(NNC(=O)c2cccs2)cc1 [E07, 4-[2-(2-thienylcarbonyl)hydrazino]benzenesulfonamide] | 0 | 36.2 ± 0.35 | 
COc1cccc2c1C(=O)c1c(O)c3c(c(O)c1C2=O)C[C@@](O)(C(=O)CO)C[C@@H]3O[C@H]1C[C@H](N)[C@H](O)[C@H](C)O1 [doxorubicin, reference compound] | 57.6 ± 2.1 |  | 

Reference: article PMC12663132, “Assessment of cytotoxicity of some synthetic compounds against breast carcinoma spheroids with subsequent analysis of pro-apoptotic and gene expression” (Scientific Reports, 2025)
